Reference: patent US20250177408A1, “INHIBITOR OF INTERACTION BETWEEN YAP/TAZ AND TEAD, PREPARATION THEREOF, PHARMACEUTICAL COMPOSITION THEREOF AND USE THEREOF” (ETERN BIOPHARMA (SHANGHAI) CO., LTD., priority 2022, published 2025)
Where two headings read alike, the source gives them in different places.

Legend:
[1] = biological target: YAP-TEAD protein interaction (His-TEAD1 (209-426) protein, Bio-YAP peptide (60-100)) (Homo sapiens, UniProt P28347); assay: YAP-TEAD protein interaction HTRF experiment; assay type: binding; details: His-TEAD1 (209-426) 10 nM, Bio-YAP peptide 50 nM, read-out: Activity of each compound in blocking YAP-TEAD protein interaction (grades of IC50 values)
YAP-TEAD protein interaction (His-TEAD1 (209-426) protein, Bio-YAP peptide (60-100)), sequence (P28347 209-426): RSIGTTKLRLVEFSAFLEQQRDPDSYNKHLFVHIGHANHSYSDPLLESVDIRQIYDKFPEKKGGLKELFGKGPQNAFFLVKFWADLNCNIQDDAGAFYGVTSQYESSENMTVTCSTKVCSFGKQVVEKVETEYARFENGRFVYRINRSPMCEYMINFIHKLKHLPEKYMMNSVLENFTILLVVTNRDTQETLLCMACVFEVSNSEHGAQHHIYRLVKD
Procedure: In this example, the YAP-TEAD protein interaction HTRF experiment was used to detect the activity of each compound in blocking the YAP-TEAD protein interaction.
The experiment was carried out according to the following operation steps:
Step 1: His-TEAD1 (209-426) protein was added to a 384-well detection white plate to a final concentration of 10 nM, and buffer was used as the background signal well. The compounds to be tested were subjected to 3-fold dilution and a total of 10 concentration gradients were set up, and each diluted solution was mixed well. A certain volume of the compound to be tested was added to each well separately, 2 replicates were set for each concentration, and the final concentration of DMSO was controlled at 1%. Incubation was carried out at room temperature for 20 minutes. The amino acid sequence of TAED1 (209-426) used in this step is shown in SEQ ID NO: 1:
After mixing evenly, the mixture was incubated at room temperature for 10 minutes.
Step 3: Anti-His-Eu cryptate gold and streptavidin-XL665 were diluted according to the instructions and mixed in equal proportions. A certain volume of the detection reagent was added to the well, and the mixture was incubated at room temperature for 1 hour.
Step 4: The signal was detected using an Envision (Perkin Elmer) microplate reader at an excitation wavelength of 320 nm and emission wavelengths of 665 nm and 620 nm.
Step 5: The signal was calculated based on the ratio of Em665/Em620*10000.
(§1) The inhibition percentage (%) was calculated using the following formula: […]
The half-maximal inhibitory concentration (IC50) values were calculated using GraphPad Prism software.

MSTO-211H cells = assay: Cell proliferation inhibition experiment (CellTiter-Glo); assay type: cell-based; details: 96 hours, read-out: Inhibitory activity of each compound on the proliferation of MSTO-211H cells (grades of IC50 values)
Procedure: In this example, the intracellular ATP was quantitatively determined by the CellTiter-Glo luminescence cell viability detection kit to detect the number of living cells in the culture.
Step 1: MSTO-211H (ATCC, CRL-2081TM) or NCI-H2052 (ATCC, CRL-5915TM) cells were inoculated in a 96-well plate at a density of 1500 cells per well with a volume of 100 μL per well, and the cells were incubated overnight in a 37° C., 5% carbon dioxide incubator. The culture medium used was RPMI1640 medium (GIBCO-A10491-01)+10% FBS (GIBCO-10099141C)+1% penicillin/streptomycin (Pen/Strep) (GIBCO-15070-063).
Step 2: The cells were treated with the compounds to be tested. The compounds to be tested were 3-fold diluted, and a total of 9 concentration gradients were set up; a certain volume of DMSO or the compounds to be tested was added to each well, respectively, and 2 replicates were set up for each concentration, and the final concentration of DMSO was controlled to be no higher than 0.5%. The cells were incubated for 96 hours in a 37° C., 5% carbon dioxide incubator.
Step 3: Cell viability was detected in the control group and treatment group using CellTiter-Glo Luminescent Cell Viability Assay kit (Promega, G7570). 50 μL of CellTiter-Glo was added to each well, mixed well, and incubated at room temperature for 10 minutes. The signal was read using En Vision® Multilabel Plate Reader (Perkin Elmer).
as §1
Using Graphpad Prism software, the IC50 values of the compounds inhibiting the CTG signal of cell proliferation activity was calculated.

SMILES | IC50 [1] [nM] | IC50 (MSTO-211H cells; Homo sapiens) [nM] | IC50 (MSTO-211H cells) [nM]
NC(=O)c1cc2c(c(F)c1-c1c(Cl)c(F)cc3c1C[C@](c1ccccc1)([C@@H]1CCCN1)O3)Oc1c(cnn(CCF)c1=O)O2 (atropisomer, axis not shown) [Compound 118, (S)-8-((S)-5-Chloro-6-fluoro-2-phenyl-2-((S)-pyrrolidin-2-yl)-2,3-dihydrobenzofuran-4-yl)-9-fluoro-2-(2-fluoroethyl)-1-oxo-1,2-dihydrobenzo[5,6][1,4]dioxo[2,3-d]pyridazine-7-carboxamide] | < 50 | < 200 | 
NC(=O)c1cc2c(c(F)c1-c1c(Cl)c(F)cc3c1C[C@](c1ccccc1)([C@@H]1CCCN1)O3)Oc1c(N)ncnc1O2 (atropisomer, axis not shown) [Compound 114, (S)-4-Amino-7-((S)-5-chloro-6-fluoro-2-phenyl-2-((S)-pyrrolidin-2-yl)-2,3-dihydrobenzofuran-4-yl)-6-fluorobenzo[5,6][1,4]dioxo [2,3-d]pyrimidine-8-carboxamide] | < 50 | 500 to 5000 | 
NC(=O)c1cc2c(c(F)c1-c1c(Cl)c(F)cc3c1C[C@](c1ccccc1)([C@@H]1CCCN1)O3)OCc1n[nH]nc1-2 (atropisomer, axis not shown) [Compound 7, (S)-7-((S)-5-Chloro-6-fluoro-2-phenyl-2-((S)-pyrrolidin-2-yl)-2,3-dihydrobenzofuran-4-yl)-6-fluoro-2,4-dihydrochromeno[3,4-d][1,2,3]triazole-8-carboxamide] | < 50 | 200 to 500 | 
Cn1ncc2c(c1=O)Oc1cc(C(N)=O)c(-c3c(Cl)c(F)cc4c3CC(c3ccccc3)(C3CCCN3)O4)c(F)c1O2 [Compound 106, (S)-8-((S)-5-Chloro-6-fluoro-2-phenyl-2-((S)-pyrrolidin-2-yl)-2,3-dihydrobenzofuran-4-yl)-9-fluoro-3-methyl-4-oxo-3,4-dihydrobenzo[5,6][1,4]dioxo[2,3-d]pyridazine-7-carboxamide] | < 50 | 200 to 500 | 
Cn1nc2c(cc1=O)Oc1cc(C(N)=O)c(-c3c(Cl)c(F)cc4c3C[C@](c3ccccc3)([C@@H]3CCCN3)O4)c(F)c1O2 (atropisomer, axis not shown) [Compound 122, (S)-8-((S)-5-Chloro-6-fluoro-2-phenyl-2-((S)-pyrrolidin-2-yl)-2,3-dihydrobenzofuran-4-yl)-9-fluoro-2-methyl-3-oxo-2,3-trihydrobenzo [5,6][1,4]dioxo [2,3-c]pyridazine-7-carboxamide] | < 50 | < 200 | 
NC(=O)c1cc2c(c(F)c1-c1c(Cl)c(F)cc3c1C[C@](c1ccccc1)([C@@H]1CCCN1)O3)Oc1c(cnn(CCC(F)(F)F)c1=O)O2 (atropisomer, axis not shown) [Compound 133, (S)-8-((S)-5-Chloro-6-fluoro-2-phenyl-2-((S)-pyrrolidin-2-yl)-2,3-dihydrobenzofuran-4-yl)-9-fluoro-2-(3,3,3-trifluoropropyl)-1-oxo-1,2-dihydrobenzo[5,6][1,4]dioxo[2,3-d]pyridazine-7-carboxamide] | < 50 | < 200 | 
NC(=O)c1cc2c(c(F)c1-c1c(Cl)c(F)cc3c1C[C@](c1ccccc1)([C@@H]1CCCN1)O3)Oc1c(ncn(C3CC3)c1=O)O2 (atropisomer, axis not shown) [Compound 139, (S)-7-((S)-5-Chloro-6-fluoro-2-phenyl-2-((S)-pyrrolidin-2-yl)-2,3-dihydrobenzofuran-4-yl)-3-cyclopropyl-6-fluoro-4-oxo-3,4-dihydrobenzo [5,6][1,4]dioxo [2,3-d]pyrimidine-8-carboxamide] | < 50 | < 200 | 
CNC(=O)c1cc2c(c(F)c1-c1c(Cl)c(F)cc3c1C[C@](c1ccccc1)([C@@H]1CCCN1)O3)Oc1c(cnn(CCC(F)(F)F)c1=O)O2 (atropisomer, axis not shown) [Compound 142, (R)-8-((S)-5-Chloro-6-fluoro-2-phenyl-2-((S)-pyrrolidin-2-yl)-2,3-dihydrobenzofuran-4-yl)-9-fluoro-N-methyl-1-oxo-2-(3,3,3-trifluoropropyl)-1,2-dihydrobenzo[5,6][1,4]dioxa[2,3-d]pyridazine-7-carboxamide] | < 50 | < 200 | 
NC(=O)c1cc2c(c(F)c1-c1c(Cl)c(F)cc3c1C[C@](c1ccccc1)([C@@H]1CCCN1)O3)Oc1nccnc1O2 (atropisomer, axis not shown) [Compound 10, (S)-8-((S)-5-Chloro-6-fluoro-2-phenyl-2-((S)-pyrrolidin-2-yl)-2,3-dihydrobenzofuran-4-yl)-9-fluorobenzo[5,6][1,4]dioxino[2,3-b]pyrazine-7-carboxamide] | < 50 | < 200 | 
Cn1ccc2c(c1=O)Oc1cc(C(N)=O)c(-c3c(Cl)c(F)cc4c3C[C@](c3ccccc3)([C@@H]3CCCN3)O4)c(F)c1O2 (atropisomer, axis not shown) [Compound 136, (S)-7-((S)-5-Chloro-6-fluoro-2-phenyl-2-((S)-pyrrolidin-2-yl)-2,3-dihydrobenzofuran-4-yl)-6-fluoro-2-methyl-1-oxo-1,2-dihydrobenzo[5,6][1,4]dioxo[2,3-c]pyridine-8-carboxamide] | < 50 | < 200 | 
NC(=O)c1cc2c(c(F)c1-c1c(Cl)c(F)cc3c1C[C@](c1ccccc1)([C@@H]1CCCN1)O3)Oc1ncn(CCF)c(=O)c1O2 (atropisomer, axis not shown) [Compound 138, (S)-8-((S)-5-Chloro-6-fluoro-2-phenyl-2-((S)-pyrrolidin-2-yl)-2,3-dihydrobenzofuran-4-yl)-9-fluoro-3-(2-fluoroethyl)-4-oxo-3,4-dihydrobenzo [5,6][1,4]dioxo [2,3-d]pyrimidine-7-carboxamide] | < 50 | < 200 | 
NC(=O)c1cc2c(c(F)c1-c1c(Cl)c(F)cc3c1C[C@](c1ccccc1)([C@@H]1CCCN1)O3)Oc1c(cnn(C3CC(F)(F)C3)c1=O)O2 (atropisomer, axis not shown) [Compound 147, (S)-8-((S)-5-Chloro-6-fluoro-2-phenyl-2-((S)-pyrrolidin-2-yl)-2,3-dihydrobenzofuran-4-yl)-2-(3,3-difluorocyclobutyl)-9-fluoro-1-oxo-1,2-dihydrobenzo[5,6][1,4]dioxa[2,3-d]pyridazine-7-carboxamide] | < 50 | < 200 | 
NC(=O)c1cc2c(c(F)c1-c1c(Cl)c(F)cc3c1C[C@](c1ccccc1)([C@@H]1CCCN1)O3)OCC1(CC1)O2 (atropisomer, axis not shown) [Compound 5, (S)-6-((S)-5-Chloro-6-fluoro-2-phenyl-2-((S)-pyrrolidin-2-yl)-2,3-dihydrobenzofuran-4-yl)-5-fluoro-3H-spiro[benzo[b][1,4]dioxoine-2, l'-cyclopropane]-7-carboxamide] | < 50 | < 200 | 
CCn1cc2c(n1)COc1c-2cc(C(N)=O)c(-c2c(Cl)c(F)cc3c2C[C@](c2ccccc2)([C@@H]2CCCN2)O3)c1F (atropisomer, axis not shown) [Compound 62, (S)-7-((S)-5-Chloro-6-fluoro-2-phenyl-2-((S)-pyrrolidin-2-yl)-2,3-dihydrobenzofuran-4-yl)-2-ethyl-6-fluoro-2,4-dihydrochromeno[3,4-c]pyrazole-8-carboxamide] | < 50 | < 200 | 
NC(=O)c1cc2c(c(F)c1-c1c(Cl)c(F)cc3c1C[C@](c1ccccc1)([C@@H]1CCCN1)O3)Oc1c(cnn(C3CC3)c1=O)O2 [Compound 111, (S)-8-((S)-5-Chloro-6-fluoro-2-phenyl-2-((S)-pyrrolidin-2-yl)-2,3-dihydrobenzofuran-4-yl)-2-cyclopropyl-9-fluoro-1-oxo-1,2-dihydrobenzo[5,6][1,4]dioxo[2,3-d]pyridazine-7-carboxamide] | < 50 |  | < 200
